Experimental data published in US20190151266A1, “PHARMACEUTICAL COMPOSITION FOR TREATING OR PREVENTING BURN INJURIES” (priority 2016, published 2019).

Legend:
[1] = system: TRPV ion channels; assay: TRPV ion channel activity: 2-APB-induced intracellular calcium change in nociceptive sensory cells (Fluo-4-AM); type: cell-based, white rats
Description: After fl 1 nociceptive sensory cell lines in white rats incubated with the compound of Formula 1 for 24 hours were pretreated, TRPV ion channel activities were measured. The fl 1 cell lines were treated with 2-APB (2-aminoethoxydiphenyl borate) as a pre-activator for TRPV ion channels, and intracellular calcium changes, which are triggered in response to the 2-APB treatment, were evaluated using a Fluo-4-AM fluorescent dye on a real time basis.

[2] = system: f11 neuron cell lines; assay: Inhibitory efficacy of fibroblast cell proliferation; type: cell-based; details: f11 neuron cell lines treated for 72 hours; compared to control groups; FIG. 10
Description: After f11 neuron cell lines were treated with the compound of Formula 1 for 72 hours, the extents of cell differentiation were first compared/evaluated (see FIG. 10). […] Since fibroblast cell proliferation accompanies excessive collagen synthesis to make up for the dermis damaged by skin injury, scars can be left even after the damage recovery. Therefore, scar prevent or treating efficacy can be exerted by inhibiting the fibroblast proliferation.

| Structure (SMILES) | increase in the intracellular calcium level induced by 2-APB ([1]; fl 1 cell lines pre-treated with the compound for 24 hours, FIG. 9) | fibroblast cell proliferation and differentiation inhibitory efficacy [2] | intracellular calcium level after treatment with TRPV pre-activator ([1]; fl 1 cell lines, transient within 20 seconds, reverted to base level in about 5 minutes) |
| --- | --- | --- | --- |
| CC(C)c1ccc2c(c1)C=C[C@H]1[C@](C)(C(=O)O)CCC[C@]21C [Formula 1, abieta-6,8,11,13-tetraaen-18-oic acid] | strongly inhibited | improved fibroblast cell proliferation and differentiation inhibitory efficacy |  |
| NCCOB(c1ccccc1)c1ccccc1 [Formula 2-APB, 2-aminoethoxydiphenyl borate, reference compound] |  |  | sharp increase in the intracellular calcium level |
